Legend:
Src = molecular target: T1, Src (Homo sapiens, UniProt P12931); test: cSrc enzymatic assay (Caliper LifeSciences technology); assay type: biochemical
T1 construct: purchased Carna Bioscience, Kobe, Japan
Experimental: Enzymatic Assays Using the Caliper LifeSciences Technology
The assays described here are performed on the Caliper Life Sciences LC3000 system This technology provides data on enzyme activity via measurement of the relative amounts of phosphorylated or unphosphorylated fluorescently labelled substrate peptide at the end of an enzymatic reaction. These different states of peptide are resolved by applying a potential difference across the sample. The presence of the charged phosphate group on the product (as opposed to the substrate) causes a different peptide mobility between the two peptides. This is visualized by excitation of the fluorescent label on the substrate and product peptides and represented as peaks within the analysis software.
In order to measure inhibitor activity of kinase inhibitors on this technology, a TTP Mosquito liquid handling instrument is used to place 0.25 ul of the appropriate concentration of inhibitor in 100% DMSO (for a dose response curve calculation) into each well of a 384-well plate. To this reaction components are added to a final volume of 25 ul. The table below indicates the sequences and concentrations for the assays described in this report. Standard components are 1 mM DTT (Sigma, D0632), 1 mM MgCl2 (Sigma, M1028), 100 mM HEPES pH 7.5 (Calbiochem, 391338), 0.015% Brij-35 (Sigma, B4184).
The reaction is incubated for 90 min at 25 C, and then stopped by the addition of 70 ul of Stop buffer (100 mM HEPES pH 7.5, 0.015% Brij-35, 10 mM EDTA (Sigma, E7889)).
The plate is read on a Caliper LC 3000 in an Off-Chip mobility shift assay format, on a 12-sipper chip. Unphosphorylated substrate and phosphorylated product peptide resolve as separate peaks allowing direct measurement of percentage of conversion of substrate to product. The percent conversion can be plotted against concentration of inhibitor to produce a sigmoidal dose response curve, from which an IC50 can be calculated using GeneData Condoseo or a similar product. Cellular activity assays

ZAP-70 = molecular target: T2, ZAP-70 (Homo sapiens, UniProt P43403); test: Zap70 enzymatic assay (Caliper LifeSciences technology); assay type: biochemical
T2 construct: purchased BPS Bioscience, CA, USA
T2 sequence (P43403 1-619): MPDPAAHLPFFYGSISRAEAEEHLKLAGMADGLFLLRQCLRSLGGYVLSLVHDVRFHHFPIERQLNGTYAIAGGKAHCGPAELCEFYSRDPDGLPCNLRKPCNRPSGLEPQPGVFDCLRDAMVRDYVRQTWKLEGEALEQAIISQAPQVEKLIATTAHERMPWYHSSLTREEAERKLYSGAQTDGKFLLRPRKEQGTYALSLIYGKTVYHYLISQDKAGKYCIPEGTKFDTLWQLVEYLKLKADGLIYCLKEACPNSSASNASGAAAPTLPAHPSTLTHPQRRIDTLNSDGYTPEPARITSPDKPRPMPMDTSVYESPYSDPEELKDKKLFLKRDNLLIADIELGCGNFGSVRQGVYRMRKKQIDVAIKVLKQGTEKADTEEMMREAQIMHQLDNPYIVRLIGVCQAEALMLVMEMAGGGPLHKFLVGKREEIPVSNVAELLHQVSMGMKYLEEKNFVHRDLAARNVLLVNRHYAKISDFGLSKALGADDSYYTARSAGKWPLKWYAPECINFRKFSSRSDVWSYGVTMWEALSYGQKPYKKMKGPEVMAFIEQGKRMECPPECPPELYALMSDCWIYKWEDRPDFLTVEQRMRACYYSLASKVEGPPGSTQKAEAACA
Method in brief: (§1)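 Off-chip mobility-shift assay quantifying conversion of a fluorescent peptide substrate to phosphorylated product. Reactions in 100 mM HEPES pH 7.5, 1 mM DTT, 1 mM MgCl2, 0.015% Brij-35, 90 min at 25 C, stopped with EDTA. IC50 from sigmoidal fit of percent conversion versus inhibitor concentration.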

Ramos cells = test: BCR crosslinking-induced BLNK phosphorylation (BLNK cell assay); assay type: cell-based; details: Homo sapiens
Experimental: 1. BCR Crosslinking-Induced BLNK Phosphorylation
Ramos cells incubated overnight in IMDM medium containing 5% FCS were resuspended in IMDM medium without serum (3.3×10^6 cells/ml). 90 μl of cell suspension (300′000 cells) were incubated with 10 μl of SYK inhibitors (in 3% DMSO) for 20 minutes at 37° C., in 96 well plates. After preincubation with inhibitors, cells were activated with 10 μg/ml of goat antihuman anti-IgM for 10 minutes at 37° C. After stimulation, cells were fixed by addition of 80 μl of 4% paraformaldehyde followed by a 10 minutes incubation at RT and […] in 0.1% Triton X-100 in PBS. BLNK phosphorylation was detected by flow cytometry after staining of the cells with anti-BLNK-pY84-PE antibodies from BD pharmingen, for 45 minutes at RT. […]

Syk = molecular target: T3, Syk (Homo sapiens, UniProt P43405); test: Syk enzyme assay (flash plate / Caliper mobility shift); assay type: biochemical
T3 construct: purchased BPS Bioscience, CA, USA
Method in brief: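 Flashplate format used 2.5 nM SYK, 400 nM biotinylated peptide and 10 µM ATP with 33P tracer, pH 7.5, 1 h at 30 °C, read by radioactivity. Caliper format ran 90 min at 25 °C in HEPES pH 7.5, reading percent peptide conversion by mobility shift. IC50s came from dose-response curves.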

KDR = molecular target: T4, KDR (Homo sapiens, UniProt P35968); test: KDR enzymatic assay (Caliper LifeSciences technology); assay type: biochemical
T4 construct: purchased BPS Bioscience, CA, USA
Method in brief: as §1

T1 sequence (P12931 whole entry): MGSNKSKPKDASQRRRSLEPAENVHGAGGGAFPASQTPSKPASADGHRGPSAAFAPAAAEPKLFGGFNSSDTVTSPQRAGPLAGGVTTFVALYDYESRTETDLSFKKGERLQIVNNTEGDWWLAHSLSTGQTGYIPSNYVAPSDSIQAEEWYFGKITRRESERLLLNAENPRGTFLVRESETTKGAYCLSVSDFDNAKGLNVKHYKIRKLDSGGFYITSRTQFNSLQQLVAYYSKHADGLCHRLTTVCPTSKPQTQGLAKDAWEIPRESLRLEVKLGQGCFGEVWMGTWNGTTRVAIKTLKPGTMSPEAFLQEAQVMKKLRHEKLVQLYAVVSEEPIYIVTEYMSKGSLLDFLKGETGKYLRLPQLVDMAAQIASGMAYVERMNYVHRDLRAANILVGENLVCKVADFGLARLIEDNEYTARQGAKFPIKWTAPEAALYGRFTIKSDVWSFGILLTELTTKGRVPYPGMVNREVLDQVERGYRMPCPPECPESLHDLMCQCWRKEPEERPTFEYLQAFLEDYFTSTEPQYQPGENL
T4 sequence (P35968 20-1356): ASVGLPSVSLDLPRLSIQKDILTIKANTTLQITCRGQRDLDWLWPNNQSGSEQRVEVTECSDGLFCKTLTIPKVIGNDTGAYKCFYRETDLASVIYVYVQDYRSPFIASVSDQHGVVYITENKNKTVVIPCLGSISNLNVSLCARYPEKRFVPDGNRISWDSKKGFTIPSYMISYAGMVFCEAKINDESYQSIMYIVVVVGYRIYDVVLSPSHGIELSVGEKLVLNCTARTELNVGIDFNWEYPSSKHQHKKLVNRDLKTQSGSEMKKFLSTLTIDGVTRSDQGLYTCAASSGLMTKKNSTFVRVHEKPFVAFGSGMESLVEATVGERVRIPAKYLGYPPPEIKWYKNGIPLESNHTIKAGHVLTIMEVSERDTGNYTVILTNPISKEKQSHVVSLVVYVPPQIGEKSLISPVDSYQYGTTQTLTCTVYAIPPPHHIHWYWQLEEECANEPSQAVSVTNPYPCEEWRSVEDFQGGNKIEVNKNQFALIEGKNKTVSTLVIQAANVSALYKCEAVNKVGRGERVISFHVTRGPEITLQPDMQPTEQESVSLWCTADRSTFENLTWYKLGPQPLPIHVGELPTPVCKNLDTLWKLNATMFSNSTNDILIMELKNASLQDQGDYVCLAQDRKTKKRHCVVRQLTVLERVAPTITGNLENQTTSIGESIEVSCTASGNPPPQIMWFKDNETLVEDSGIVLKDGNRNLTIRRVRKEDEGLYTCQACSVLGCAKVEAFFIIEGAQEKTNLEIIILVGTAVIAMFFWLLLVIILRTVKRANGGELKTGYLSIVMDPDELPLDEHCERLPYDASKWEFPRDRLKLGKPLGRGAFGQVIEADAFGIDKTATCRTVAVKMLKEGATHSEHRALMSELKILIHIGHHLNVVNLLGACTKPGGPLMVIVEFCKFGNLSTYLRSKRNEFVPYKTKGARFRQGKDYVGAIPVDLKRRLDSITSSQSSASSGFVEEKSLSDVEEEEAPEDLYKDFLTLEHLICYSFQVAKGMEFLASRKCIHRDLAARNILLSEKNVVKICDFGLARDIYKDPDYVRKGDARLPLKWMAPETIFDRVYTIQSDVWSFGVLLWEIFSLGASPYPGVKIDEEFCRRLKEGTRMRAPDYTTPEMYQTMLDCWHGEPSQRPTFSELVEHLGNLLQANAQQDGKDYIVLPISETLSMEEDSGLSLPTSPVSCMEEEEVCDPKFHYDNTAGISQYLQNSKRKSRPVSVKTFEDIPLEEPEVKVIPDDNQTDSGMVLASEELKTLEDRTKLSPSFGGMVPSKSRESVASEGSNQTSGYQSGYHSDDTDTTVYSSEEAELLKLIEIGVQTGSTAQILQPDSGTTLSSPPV

Row | Compound | IC50 (Src) | IC50 (ZAP-70) | IC50 (Ramos cells) | IC50 (Syk) | IC50 (KDR)
1 | COc1cc(Nc2nc3c(-c4cccc(O)c4)nccn3n2)cc(OC)c1 [Example C268, 3-[2-(3,5-Dimethoxy-phenylamino)-[1,2,4]triazolo[1,5-a]pyrazin-8-yl]-phenol] | 0.3 to 3 µM | 0.3 to 3 µM | 3 to 50 µM | < 0.3 µM | < 0.3 µM
2 | COc1cc(Nc2nc3c(-c4cccc(NS(C)(=O)=O)c4)nccn3n2)cc(OC)c1 [Example C272, N-{3-[2-(3,5-Dimethoxy-phenylamino)-[1,2,4]triazolo[1,5-a]pyrazin-8-yl]-phenyl}-methanesulfonamide] | 0.3 to 3 µM | 0.3 to 3 µM | 3 to 50 µM | < 0.3 µM | < 0.3 µM
3 | NCc1cccc(-c2nccn3nc(Nc4ccc(N5CCOCC5)cc4)nc23)c1 [Example C253, [8-(3-Aminomethyl-phenyl)-[1,2,4]triazolo[1,5-a]pyrazin-2-yl]-(4-morpholin-4-yl-phenyl)-amine] | 0.3 to 3 µM | – | 3 to 50 µM | < 0.3 µM | < 0.3 µM
4 | c1cnc2cc(-c3nccn4nc(Nc5ccc(N6CCOCC6)cc5)nc34)ccc2c1 [Example C265, (4-Morpholin-4-yl-phenyl)-(8-quinolin-7-yl-[1,2,4]triazolo[1,5-a]pyrazin-2-yl)-amine] | 0.3 to 3 µM | 0.3 to 3 µM | 3 to 50 µM | < 0.3 µM | < 0.3 µM
5 | Cc1cc(C)cc(Nc2nc3c(NCCCN4CCN(C)CC4)nccn3n2)c1 [Example C36, N^2-(3,5-Dimethyl-phenyl)-N^8-[3-(4-methyl-piperazin-1-yl)-propyl]-[1,2,4]triazolo[1,5-a]pyrazine-2,8-diamine] | 3 to 50 µM | 3 to 50 µM | – | 3 to 50 µM | 3 to 50 µM
6 | c1ccc2ncc(-c3nccn4nc(Nc5ccc(N6CCOCC6)cc5)nc34)cc2c1 [Example C261] | 0.3 to 3 µM | 3 to 50 µM | 3 to 50 µM | < 0.3 µM | < 0.3 µM
7 | Cc1cccc(Nc2nc3c(-c4ccc(N5CCOCC5)cc4)nccn3n2)c1 [Example C13, [8-(4-Morpholin-4-yl-phenyl)-[1,2,4]triazolo[1,5-a]pyrazin-2-yl]-m-tolyl-amine] | 3 to 50 µM | 3 to 50 µM | – | 0.3 to 3 µM | 0.3 to 3 µM
8 | COc1cc(Nc2nc3c(-c4ccccc4-c4ccccc4)nccn3n2)cc(OC)c1 [Example C284, (8-Biphenyl-2-yl-[1,2,4]triazolo[1,5-a]pyrazin-2-yl)-(3,5-dimethoxy-phenyl)-amine] | – | – | 3 to 50 µM | < 0.3 µM | –
9 | FC(F)(F)c1cccc(Nc2nc3c(NCCCN4CCOCC4)nccn3n2)c1 [Example C42, N^8-(3-Morpholin-4-yl-propyl)-N^2-(3-trifluoromethyl-phenyl)-[1,2,4]triazolo[1,5-a]pyrazine-2,8-diamine] | 3 to 50 µM | 0.3 to 3 µM | – | 3 to 50 µM | 3 to 50 µM
10 | COc1cc(Nc2nc3c(-c4ccc(C(C)(C)C#N)cc4)nccn3n2)cc(OC)c1 [Example C256, 2-{4-[2-(3,5-Dimethoxy-phenylamino)-[1,2,4]triazolo[1,5-a]pyrazin-8-yl]-phenyl}-2-methyl-propionitrile] | 0.3 to 3 µM | 3 to 50 µM | – | < 0.3 µM | 0.3 to 3 µM
11 | COc1cc(Nc2nc3c(-c4cccc5[nH]ncc45)nccn3n2)cc(OC)c1 [Example C303, (3,5-Dimethoxy-phenyl)-[8-(1H-indazol-4-yl)-[1,2,4]triazolo[1,5-a]pyrazin-2-yl]-amine] | < 0.3 µM | < 0.3 µM | – | < 0.3 µM | 0.3 to 3 µM
12 | Cc1cc(C)cc(Nc2nc3c(NCCN)nccn3n2)c1 [Example C34, N^8-(2-Amino-ethyl)-N^2-(3,5-dimethyl-phenyl)-[1,2,4]triazolo[1,5-a]pyrazine-2,8-diamine] | 3 to 50 µM | 3 to 50 µM | – | 3 to 50 µM | 3 to 50 µM
13 | COc1cc(Nc2nc3c(-c4cnn(C)c4)nccn3n2)cc(OC)c1 [Example C300, (3,5-Dimethoxy-phenyl)-[8-(1-methyl-1H-pyrazol-4-yl)-[1,2,4]triazolo[1,5-a]pyrazin-2-yl]-amine] | 0.3 to 3 µM | 3 to 50 µM | – | < 0.3 µM | 0.3 to 3 µM
14 | Cc1cccc(Nc2nc3c(NCCCN4CCN(C)CC4)nccn3n2)c1 [Example C48, N^8-[3-(4-Methyl-piperazin-1-yl)-propyl]-N^2-m-tolyl-[1,2,4]triazolo[1,5-a]pyrazine-2,8-diamine] | 3 to 50 µM | 0.3 to 3 µM | – | 3 to 50 µM | 3 to 50 µM
15 | Cc1cc(C)cc(Nc2nc3c(NCCCN(C)C)nccn3n2)c1 [Example C35, N^8-(3-Dimethylamino-propyl)-N^2-(3,5-dimethyl-phenyl)-[1,2,4]triazolo[1,5-a]pyrazine-2,8-diamine] | 3 to 50 µM | 3 to 50 µM | – | 3 to 50 µM | 3 to 50 µM

The remaining lines, values ahead:

Row | IC50 (Src) | IC50 (ZAP-70) | IC50 (Ramos cells) | IC50 (Syk) | IC50 (KDR) | Compound
16 | 3 to 50 µM | 3 to 50 µM | – | 0.3 to 3 µM | 3 to 50 µM | COc1cc(Nc2nc3c(N4CCCC4c4ccccn4)nccn3n2)cc(OC)c1 (stereo not shown) [Example D21, (3,5-Dimethoxy-phenyl)-[8-(2-pyridin-2-yl-pyrrolidin-1-yl)-[1,2,4]triazolo[1,5-a]pyrazin-2-yl]-amine]
17 | 0.3 to 3 µM | 3 to 50 µM | – | < 0.3 µM | < 0.3 µM | Cn1ncc2cc(-c3nccn4nc(Nc5ccc(N6CCOCC6)cc5)nc34)ccc21 [Example D2, [8-(1-Methyl-1H-indazol-5-yl)-[1,2,4]triazolo[1,5-a]pyrazin-2-yl]-(4-morpholin-4-yl-phenyl)-amine]
18 | 0.3 to 3 µM | – | 3 to 50 µM | < 0.3 µM | 0.3 to 3 µM | Cc1nc2cc(Nc3nc4c(-c5cnn(C)c5)nccn4n3)ccc2[nH]1 [Example D1, (2-Methyl-1H-benzoimidazol-5-yl)-[8-(1-methyl-1H-pyrazol-4-yl)-[1,2,4]triazolo[1,5-a]pyrazin-2-yl]-amine]
19 | 0.3 to 3 µM | 3 to 50 µM | – | 0.3 to 3 µM | 0.3 to 3 µM | COCC(O)Cn1cc(-c2nccn3nc(Nc4ccc(N5CCOCC5)cc4)nc23)cn1 (stereo not shown) [Example D6, 1-Methoxy-3-{4-[2-(4-morpholin-4-yl-phenylamino)-[1,2,4]triazolo[1,5-a]pyrazin-8-yl]-pyrazol-1-yl}-propan-2-ol]
20 | 0.3 to 3 µM | 3 to 50 µM | – | < 0.3 µM | < 0.3 µM | CN(C)c1ccc(-c2nccn3nc(Nc4ccc(N5CCOCC5)cc4)nc23)cn1 [Example D3, [8-(6-Dimethylamino-pyridin-3-yl)-[1,2,4]triazolo[1,5-a]pyrazin-2-yl]-(4-morpholin-4-yl-phenyl)-amine]

Reference: patent US9023851B2 (Merck Patent GmbH, priority 2010, dated 2015)
